Peptide text beside a SMILES is read from it. * marks the point of attachment. Cbz = O=C(OCc1ccccc1)*; CH2F = FC*
Tests used:
[1] = test system: RAW 264.7 cells; assay: LPS-induced HMGB1 protein in RAW 264.7 cell supernatants by Western blot; assay type: cell-based, Murine; settings: LPS 200 ng/ml, 0.1 to 10 μM, 16 h
Method: Treatment of RAW 264.7 cells with caspase inhibitor and Western blotting of HMGB1. Murine macrophage-like RAW 264.7 cells (American Type Culture Collection, ATCC, Rockville, Md.) were cultured in a 24-well culture dish in RPMI 1640 medium (Life Technologies, Grand Island, N.Y.), supplemented with 10% fetal bovine serum (Gemini, Catabasas, Calif.), penicillin and streptomycin (Life Technologies). Cells were used at 90% confluence and treatment was carried out in serum-free Opti-MEM I medium (Life Technologies). The cells were treated with LPS (200 ng/ml, Sigma, E. coli. 0111:B4) and various concentrations, ranging from 0.1 to 10 μM, of either the caspase inhibitor, Z-VAD-FMK (BD Biosciences), or a control peptide, Z-FA-FMK (BD Biosciences), in Opti-MEM I medium (Life Technologies, Grand Island, N.Y.). After 16 h, cell culture supernatants were concentrated by Centricon 10 (Millpore Corp., Bedford, Mass.) and HMGB1 levels were determined by Western blot. […] Western blots were scanned with a silver image scanner (Silverscanner II, Lacie Limited, Beaverton, Oreg.), and the relative band intensity was quantified using the NIH image 1.59 software. The levels of HMGB1 were calculated with reference to standard curves generated with purified HMGB1.

[2] = test system: RAW 264.7 cells; assay: HMGB1 translocation in LPS-treated RAW 264.7 cells by immunofluorescence; assay type: cell-based, Murine; settings: LPS 100 ng/ml, 1 μM, 16 hours
Method: RAW 264.7 cells were plated in 8-well slide chambers (Lab-Tek, Nalge Nunc Internationals, Naperville, Ill.) and used at 60% confluence. Cells were incubated with LPS (100 ng/ml) alone, or LPS (100 ng/ml) with either 1 μM Z-VAD-FMK (VAD) or Z-FA-FMK control peptide for 16 hours in Opti-MEM I medium. Cells were washed 3 times with phosphate-buffered saline (PBS) at pH 7.2 and fixed in 2% neutral formalin for 20 minutes at room temperature. Polyclonal anti-HMGB1 antibody was added at a concentration of 2.5 μg/ml and incubated for an additional 30 minutes at room temperature. FITC-labeled anti-rabbit IgG was added (1:300 dilution, Sigma, St. Louis, Mo.; Cat. No. F9887). Cells were then washed 3 times with PBS (pH 7.2) with 0.1% saponin (Sigma Cat. #S4521), and mounted for fluorescent confocal microscopy analysis. To mount cells on a slide, one drop of VECTASHIELD mounting medium (Vector Lab, Cat#H-10000) was dispensed on to the section and allowed to cover the entire section. A coverslip was added, and the slides were imaged using a Zeiss, Axiovert 200 microscope (Gottingen, Germany).

[3] = test system: HMGB1; assay: HMGB1 protein levels in BAL, peritoneal fluid and serum of CLP septic mice; assay type: in vivo, BALB/c mice; settings: 0.5 mg IP at 90 min after surgery, 24 h, BAL fluid
Method: Cecal ligation and puncture (CLP) surgery was performed on BALB/c mice to induce sepsis as described previously (Fink, M. P. and Heard, S. O., J. Surg. Res. 49:186-96 (1990); Friedman, G., et al., Crit. Care Med. 26:2078-86 (1998); Remick, D., et al., Shock 4:89-95 (1995)). At 90 min after the surgery, 0.5 mg of either Z-VAD-FMK (VAD) caspase inhibitor or Z-FA-FMK control peptide was administered to each mouse by intraperitoneal injection. Mice were euthanized 24 h after CLP. HMGB1 protein levels in bronchoalveolar fluid (BAL), peritoneal fluid and serum were measured (FIG. 6). Protein levels of certain serum (e.g., IL-6, KC, MIP-2) and BAL (e.g., KC, MW-2) cytokines were determined (FIG. 7). Cell-conditioned medium, lung lavage fluid or peritoneal lavage fluid (100-2000) were first concentrated by passing through Centricon 10 (Millpore Corp. Bedford, Mass.). Cytokines were measured by using an enzyme-linked immunosorbent assay (ELISA) kit according to the instructions of the manufacturer (R & D System Inc., Minneapolis, Minn.). […] Western blots were scanned with a silver image scanner ([…] Limited, Beaverton, Oreg.), and the relative band intensity was quantified by using the NIH image 1.59° software. The levels of HMGB1 were calculated with reference to standard curves generated with purified HMGB1.

[4] = test system: IL-6, KC, MIP-2; assay: Cytokine levels (IL-6, KC, MIP-2) in serum and BAL of CLP septic mice by ELISA; assay type: in vivo, BALB/c mice; settings: 0.5 mg IP at 90 min after surgery, 24 h
Method: Cecal ligation and puncture (CLP) surgery was performed on BALB/c mice to induce sepsis as described previously (Fink, M. P. and Heard, S. O., J. Surg. Res. 49:186-96 (1990); Friedman, G., et al., Crit. Care Med. 26:2078-86 (1998); Remick, D., et al., Shock 4:89-95 (1995)). At 90 min after the surgery, 0.5 mg of either Z-VAD-FMK (VAD) caspase inhibitor or Z-FA-FMK control peptide was administered to each mouse by intraperitoneal injection. Mice were euthanized 24 h after CLP. HMGB1 protein levels in bronchoalveolar fluid (BAL), peritoneal fluid and serum were measured (FIG. 6). Protein levels of certain serum (e.g., IL-6, KC, MIP-2) and BAL (e.g., KC, MW-2) cytokines were determined (FIG. 7). Cell-conditioned medium, lung lavage fluid or peritoneal lavage fluid (100-2000) were first concentrated by passing through Centricon 10 (Millpore Corp. Bedford, Mass.). Cytokines were measured by using an enzyme-linked immunosorbent assay (ELISA) kit according to the instructions of the manufacturer (R & D System Inc., Minneapolis, Minn.). To determine HMGB1 concentrations, Centricon 10-filtered samples were fractionated by SDS-PAGE, transferred to PVDF Immunoblot membrane (Bio-Rad laboratories, Hercules, Calif.), and probed with polyclonal anti-HMGB1 IgG (5 μg/ml) for Western blot. Donkey anti-rabbit IgG conjugated with HRP (Amersham, Little Chalfont Buckinghamshire, England) and used at final dilution of 1:5,000. Polyclonal antibodies raised against purified HMGB1 were generated in rabbits (Cocalico Biologicals, Inc., Reamstown, Pa.) and IgG was purified using protein A agarose according to manufacturer's instructions (Pierce, Rockford, Ill.). Western blots were scanned with a silver image scanner ([…] Limited, Beaverton, Oreg.), and the relative band intensity was quantified by using the NIH image 1.59° software. The levels of HMGB1 were calculated with reference to standard curves generated with purified HMGB1.

[5] = test system: apoptotic cells; assay: Caspase 3 and TUNEL staining of spleen and thymus sections of CLP septic mice; assay type: in vivo, BALB/c mice; settings: 0.5 mg IP at 90 min after surgery, 24 h
Method: Cecal ligation and puncture (CLP) surgery was performed on BALB/c mice to induce sepsis as described previously (Fink, M. P. and Heard, S. O., J. Surg. Res. 49:186-96 (1990); Friedman, G., et al., Crit. Care Med. 26:2078-86 (1998); Remick, D., et al., Shock 4:89-95 (1995)). At 90 min after the surgery, 0.5 mg of either Z-VAD-FMK (VAD) caspase inhibitor or Z-FA-FMK control peptide was administered to each mouse by intraperitoneal injection. Mice were euthanized 24 h after CLP.
Apoptotic cells were detected by performing Caspase 3 staining (FIG. 8A) and TUNEL staining (FIG. 8B) on fixed spleen and thymus sections from sacrificed mice that were either untreated (Normal) or treated with Z-VAD-FMK (VAD) caspase inhibitor (CLP+VAD) or Z-FA-FMK control peptide (CLP+ctrl) following CLP surgery. […] mice were analyzed in each group. Tissue sections were cut at 5 μm. Sections were placed on glass slides and subjected to staining using a TUNEL assay, performed according to manufacturer's protocol (ApoAlert DNA fragmentation assay kit, BD BioSciences, Palo Alto, Calif., Cat# K2024-1). […] Four to five mice were analyzed from each group.

## CC(NC(=O)[C@H](Cc1ccccc1)NC(=O)OCc1ccccc1)C(=O)CF (some centres unmarked) [Z-FA-FMK]
[1]
  LPS-induced expression of HMGB1 protein: did not have an effect on HMGB1 expression

## COC(=O)CC(NC(=O)C(C)NC(=O)C(NC(=O)OCc1ccccc1)C(C)C)C(=O)CF (stereo not drawn) [Z-VAD-FMK, carbobenzoxyl-valyl-alanyl-aspartyl-[O-methyl]-fluoromethylketone] (Cbz-Val-Ala-Asp(OMe)-CH2F; configuration not given here)
[1]
  LPS-induced expression of HMGB1 protein: inhibited LPS-induced expression of HMGB1 protein in a dose-dependent manner
[2]
  HMGB1 translocation to the cytoplasm: inhibited HMGB1 translocation to the cytoplasm
[3]
  HMGB1 expression in septic mice: inhibited expression
[4]
  IL-6 expression in septic mice: inhibited expression
  KC expression in septic mice: inhibited expression
  MIP-2 expression in septic mice: inhibited expression
[5]
  number of apoptotic cells in spleen and thymus sections: reduced the number of apoptotic cells

Source: patent US20100040607A1, “Combination Therapy with Inhibitors of HMGB and Caspase for the Treatment of Inflammatory Diseases” (priority 2005, published 2010)
